# Literature values as cited in patent US20220160668A1, “FORMULATIONS AND METHODS FOR TREATING CONDITIONS OF THE EYE” (Sight Sciences, Inc., priority 2020, published 2022).
# Conditions: antibiotic level of azithromycin (1%)
structure (smiles),measurement,value
CC[C@H]1OC(=O)[C@H](C)[C@@H](O[C@H]2C[C@@](C)(OC)[C@@H](O)[C@H](C)O2)[C@H](C)[C@@H](O[C@@H]2O[C@H](C)C[C@H](N(C)C)[C@H]2O)[C@](C)(O)C[C@@H](C)CN(C)[C@H](C)[C@@H](O)[C@]1(C)O [azithromycin],effect on phase transition temperature of meibum lipids and lipid ordering,can improve the phase transition temperature of meibum lipids and lipid ordering
